The numbers were not newly measured in patent US12295935B2, “Method for therapeutic treatment of rosacea” (Sol-Gel Technologies Ltd., priority 2019, dated 2025), which cites them from elsewhere.

The data set relates to rosacea. The following applies: BPO as sole active agent.

Turning to `O=C(OOC(=O)c1ccccc1)c1ccccc1` [BPO, Benzoyl peroxide], the response of lesions entry is listed as “unresponsive”.
